Assay results taken from patent US10138237B2, “1,2,4-triazolo[4,3-a]pyridine compounds and their use as positive allosteric modulators of mGluR2 receptors” (Janssen Pharmaceutica NV, priority 2014, dated 2018).

How the values were obtained:
[1] = target: T1, human mGlu2 receptor (Homo sapiens, UniProt Q14416); test: [35S]GTPγS binding assay, hmGluR2 PAM; assay type: biochemical; details: in presence of EC20 glutamate; for GTPγS - hmGluR2 PAM Emax / Emax: maximal % effect relative to the control glutamate response; for EC50: membranes from CHO cells with human mGlu2 receptor, -log EC50 in M, read-out: GTPγS - hmGluR2 PAM pEC50 (converted)
T1 construct: expressed in transfected cells; host or cells: CHO cells (membrane preparation)
From the text: The compounds provided in the present invention are positive allosteric modulators of mGluR2. These compounds appear to potentiate glutamate responses by binding to an allosteric site other than the glutamate binding site. The response of mGluR2 to a concentration of glutamate is increased when compounds of Formula (I) are present. Compounds of Formula (I) are expected to have their effect substantially at mGluR2 by virtue of their ability to enhance the function of the receptor. The effects of positive allosteric modulators tested at mGluR2 using the [^35S]GTPγS binding assay method described below and which is suitable for the identification of such compounds, and more particularly the compounds according to Formula (I), are shown in Table 8.
[^35S]GTPγS Binding Assay
The [^35S]GTPγS binding assay is a functional membrane-based assay used to study G-protein coupled receptor (GPCR) function whereby incorporation of a non-hydrolysable form of GTP, [^35S]GTPγS (guanosine 5′-triphosphate, labelled with […] ^35S), is measured. The G-protein α subunit catalyzes the exchange of guanosine 5′-diphosphate (GDP) by guanosine triphosphate (GTP) and on activation of the GPCR by an agonist, [^35S]GTPγS, becomes incorporated and cannot be cleaved to continue the exchange cycle (Harper (1998) Current Protocols in Pharmacology 2.6.1-10, John Wiley & Sons, Inc.). […] Here we describe the use of the [^35S]GTPγS binding assay using membranes from cells transfected with the human mGlu2 receptor and adapted from Schaffhauser et al. (Molecular Pharmacology, 2003, […]) for the detection of the positive allosteric modulation (PAM) properties of the compounds of this invention.
CHO-cells were cultured to pre-confluence and stimulated with 5 mM butyrate for 24 h. Cells were then collected by scraping in PBS and cell suspension was centrifuged (10 min at 4000 RPM in benchtop centrifuge). Supernatant was discarded and pellet gently resuspended in 50 mM Tris-HCl, pH 7.4 by mixing with a vortex and pipetting up and down. The suspension was centrifuged at 16,000 RPM (Sorvall RC-5C plus rotor SS-34) for 10 minutes and the supernatant discarded. The pellet was homogenized in 5 mM Tris-HCl, pH 7.4 using an ultra-turrax homogenizer and centrifuged again (18,000 RPM, 20 min, 4° C.). The final pellet was resuspended in 50 mM Tris-HCl, pH 7.4 and stored at −80° C. in appropriate aliquots before use. Protein concentration was determined by the Bradford method (Bio-Rad, USA) with bovine serum albumin as standard.
Measurement of mGluR2 positive allosteric modulatory activity of test compounds was performed as follows. Test compounds and glutamate were diluted in assay buffer containing 10 mM HEPES acid, 10 mM HEPES salt, pH 7.4, 100 mM NaCl, 3 mM MgCl2 and 10 μM GDP. Human mGlu2 receptor-containing membranes were thawed on ice and diluted in assay buffer supplemented with 14 μg/ml saponin. Membranes were pre-incubated with compound alone or together with a predefined (˜EC20) concentration of glutamate (PAM assay) for 30 min at 30° C. After addition of [^35S]GTPγS (f.c. 0.1 nM), assay mixtures were shaken briefly and further incubated to allow [^35S]GTPγS incorporation on activation (30 minutes, 30° C.). Final assay mixtures contained 7 μg of membrane protein in 10 mM HEPES acid, 10 mM HEPES salt, pH 7.4, 100 mM NaCl, 3 mM MgCl2, 10 μM GDP and 2 μg/ml saponin. Total reaction volume was 200 μl. Reactions were terminated by rapid filtration through Unifilter-96 GF/B plates (Perkin Elmer, Massachusetts, USA) using a 96-well filtermate universal harvester. Filters were washed 6 times with ice-cold 10 mM NaH2PO4/10 mM Na2HPO4, pH 7.4. Filters were then air-dried, and 40 μl of liquid scintillation cocktail (Microscint-O) was added to each well. Membrane-bound radioactivity was counted in a Microplate Scintillation and Luminescence Counter from Perkin Elmer. […]

[2] = test system: 6 Hz (32 mA, 3 s, corneal) limbic seizure in mice; test: Anticonvulsant studies - 6 Hz test in mice; assay type: in vivo; details: Mus musculus, Score ≤ 2 (protected), 32 mA for 3 s
Description: Anticonvulsant Studies—6 Hz Test in Mice
At a predefined interval after drug treatment (standard: 0.5 h). individual mice were challenged with sufficient current (32 mA for 3 s; delivered through corneal electrodes) to elicit a limbic seizure. The manifestations of the “psychomotor” seizure were first described by Toman (Toman, J. E. P., 1951, “Neuropharmacologic considerations in psychic seizures” Neurology, 1, 444-460; Toman, J. E. P., Evertett, G. M., Richards, R. K., 1952, “The search for new drugs against epilepsy” Tex. Rep. Biol. Med. 10, 96-104). […] This may be characterized by immobility, or a lack of awareness regarding its environment as it goes directly into behaviours 2 and 3 (forepaw clonus or facial automatisms). The stun posture is most often upright, but the mouse may also fall on its side during a seizure; the fore limbs are often crossed and the hind limbs are spread wide apart. The “stunning” may occasionally be preceded by a few seconds of running with a rolling gait. 2) Forepaw clonus or automatism: usually resembles the mouse repeatedly raising its forepaw and then stomping it onto the ground. This is generally repeated several times, but must be repeated at least twice to be considered present. 3) Facial automatism: in the mouse best resembles jaw chomping or air biting; this also must occur at least twice to be considered present. 4) Elevated or Straub tail, which must be elevated to greater than a 45 degree angle to be considered present. The duration of the seizure varies from 5 to 75 s; at the end of the seizure, the animal rather suddenly resumes normal locomotion and exploratory behaviour. Each of the four above mentioned behaviours was scored as either absent (0) or present (1).

[3] = test system: S-ketamine-induced negative symptoms; details: healthy volunteers and patients with predominant negative symptoms of schizophrenia; cited from earlier work
[4] = test system: smoking cessation-induced deficits; details: versus placebo; cited from earlier work
[5] = test system: major depressive disorder with anxiety symptoms; details: adjunctive administration; adults with major depressive disorder with anxiety symptoms; cited from earlier work

T1 sequence (Q14416 19-872): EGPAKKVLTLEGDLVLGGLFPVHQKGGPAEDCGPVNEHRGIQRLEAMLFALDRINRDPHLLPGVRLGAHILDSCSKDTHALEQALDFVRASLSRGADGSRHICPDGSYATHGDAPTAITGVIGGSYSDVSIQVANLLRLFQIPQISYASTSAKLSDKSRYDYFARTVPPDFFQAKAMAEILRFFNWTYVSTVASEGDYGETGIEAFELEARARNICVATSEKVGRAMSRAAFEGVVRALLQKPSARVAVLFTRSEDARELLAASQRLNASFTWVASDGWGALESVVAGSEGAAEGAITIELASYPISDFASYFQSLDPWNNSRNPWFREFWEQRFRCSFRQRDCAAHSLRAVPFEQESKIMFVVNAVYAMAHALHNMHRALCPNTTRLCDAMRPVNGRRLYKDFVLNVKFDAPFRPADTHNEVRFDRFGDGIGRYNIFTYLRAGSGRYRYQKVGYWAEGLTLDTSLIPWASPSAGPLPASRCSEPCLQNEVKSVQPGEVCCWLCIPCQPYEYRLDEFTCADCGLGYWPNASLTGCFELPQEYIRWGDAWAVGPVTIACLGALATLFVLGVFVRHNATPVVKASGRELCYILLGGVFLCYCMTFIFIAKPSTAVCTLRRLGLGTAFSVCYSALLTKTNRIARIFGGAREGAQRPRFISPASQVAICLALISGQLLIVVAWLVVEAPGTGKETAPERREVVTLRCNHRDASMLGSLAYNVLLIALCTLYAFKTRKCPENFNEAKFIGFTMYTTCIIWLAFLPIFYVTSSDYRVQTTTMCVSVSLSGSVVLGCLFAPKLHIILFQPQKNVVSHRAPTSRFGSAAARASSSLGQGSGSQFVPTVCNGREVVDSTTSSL

Question: With `CCOCc1nnc2c(C(F)(F)F)c(C3CCN(c4ncc(Cl)c(OCC)n4)C3)ccn12` (single isomer, unassigned) [Co. No. 2a, 7-[(3*R)-1-(5-chloro-4-ethoxy-pyrimidin-2-yl)pyrrolidin-3-yl]-3-(ethoxymethyl)-8-(trifluoromethyl)-[1,2,4]triazolo[4,3-a]pyridine] as the compound, how does the “GTPγS - hmGluR2 PAM Emax” value ([1]; listed as 2a) read?
Answer: 226.905%

Question: What about the EC50 [1] of the same compound?
Answer: 2090 nM

Question: With `CCOc1nc(N2CCC(c3ccn4c(CC5CC5)nnc4c3C(F)(F)F)C2)ncc1Cl` (single isomer, unassigned) [Co. No. 1b, 7-[(3*S)-1-(5-chloro-4-ethoxy-pyrimidin-2-yl)pyrrolidin-3-yl]-3-(cyclopropylmethyl)-8-(trifluoromethyl)-[1,2,4]triazolo[4,3-a]pyridine] as the compound, how does the melting point read?
Answer: 168.29 °C

Question: What about the ED50 ([2]; route PO) of the same compound?
Answer: 20 mg/kg

Question: What about the ED50 ([2]; route SC) of the same compound?
Answer: 3.79 mg/kg

Question: And the “GTPγS - hmGluR2 PAM Emax” value [1]?
Answer: 277.87%

Question: What about the EC50 [1] of the same compound?
Answer: 3.8 nM

Question: Which “efficacy in S-ketamine-induced negative symptoms” value [3] does the source give for `CCCCn1ccc(N2CCC(c3ccccc3)CC2)c(Cl)c1=O` [JNJ-40411813/ADX71149] here?
Answer: showed an efficacy signal

Question: And the “effect on craving and smoking cessation-induced deficits in attention and episodic memory” value [4]?
Answer: reduce craving and improve smoking cessation-induced deficits in attention and episodic memory

Question: And the “efficacy on several secondary outcome measures of both depression and anxiety” value [5]?
Answer: showed efficacy signals

Question: What about the “efficacy on the primary outcome measure” value [5] of the same compound?
Answer: no efficacy signal was detected

Question: What does the source list for `CCOc1nc(N2CCC(c3ccn4c(CC5CC5)nnc4c3C(F)(F)F)C2)ncc1Cl` (single isomer, unassigned) [Co. No. 1a, 7-[(3*R)-1-(5-chloro-4-ethoxy-pyrimidin-2-yl)pyrrolidin-3-yl]-3-(cyclopropylmethyl)-8-(trifluoromethyl)-[1,2,4]triazolo[4,3-a]pyridine]?
Answer: melting point: 167.64 °C; GTPγS - hmGluR2 PAM Emax [1]: 148.44%; EC50 [1]: 214 nM

Question: Which melting point does the source give for `CCOCc1nnc2c(C(F)(F)F)c(C3CCN(c4ncc(Cl)c(OCC)n4)C3)ccn12` (stereo not shown) [Co. No. 2, 7-[1-(5-chloro-4-ethoxy-pyrimidin-2-yl)pyrrolidin-3-yl]-3-(ethoxymethyl)-8-(trifluoromethyl)-[1,2,4]triazolo[4,3-a]pyridine] here?
Answer: 153.86 °C

Question: And the Emax [1]?
Answer: 345%

Question: And the EC50 [1]?
Answer: 17 nM

Question: What does the source list for `CCOCc1nnc2c(C(F)(F)F)c(C3CCN(c4ncc(Cl)c(OCC)n4)C3)ccn12` (single isomer, unassigned) [Co. No. 2b, 7-[(3*S)-1-(5-chloro-4-ethoxy-pyrimidin-2-yl)pyrrolidin-3-yl]-3-(ethoxymethyl)-8-(trifluoromethyl)-[1,2,4]triazolo[4,3-a]pyridine]?
Answer: ED50 ([2]; route PO): 20 mg/kg; GTPγS - hmGluR2 PAM Emax ([1]; listed as 2b): 295.62%; EC50 [1]: 9.77 nM

Question: With `CCOc1nc(N2CCC(c3ccn4c(CC5CC5)nnc4c3C(F)(F)F)C2)ncc1Cl` (stereo not shown) [Co. No. 1, 7-[1-(5-chloro-4-ethoxy-pyrimidin-2-yl)pyrrolidin-3-yl]-3-(cyclopropylmethyl)-8-(trifluoromethyl)-[1,2,4]triazolo[4,3-a]pyridine] as the compound, how does the Emax [1] read?
Answer: 234%

Question: And the EC50 [1]?
Answer: 5.89 nM
